Source: patent US11576860B2, “Retrieval systems and related methods” (Massachusetts Institute of Technology, priority 2018, dated 2023)

Tests used:
[1] = pig, in vivo
[2] = cited from earlier work
[3] = Blood concentrations of doxycycline hyclate after deployment of drug delivery formulations in pigs (Example 1); format: in vivo; settings: drug/vinylpolysiloxane pills (32% drug loading) deployed in three Yorkshire pigs
Protocol: The model drug, doxycycline hyclate, is added to the Zhermack Elite Double 22 base and catalyst to obtain a final drug loading percentage of 32%. Each pill has around 30 mg of drug (FIG. 1B). Drug crystals less than 75 μm can be visualized on the surface of the pill using scanning electron microscope (FIG. 1C). A series of pills with 0.5 mm holes inside them can be strung on a retention frame such as nitinol superelastic wire and encased in a Tygon tubing with stainless steel beads and Nusil glue at the ends of the article (FIG. 1D). Other drugs such as moxifloxacin, isoniazid, pyrazinamide, and ethambutol can also be mixed with the Zhermack Elite Double 22 base and catalyst at drug loading percentages greater than 25 wt %. Stability of the drug form can be evaluated using proton nuclear magnetic resonance spectroscopy after extraction of the drug from the matrix in water.
The pills were created by first mixing the drug into the Zhermack Elite Double 22 base and catalyst. […] Drug loading percentages were determined relative to the finally cured silicone mixture weight. […]
After deployment of the drug delivery formulations in three Yorkshire pigs in a large animal model, concentrations of doxycycline hyclate in the blood were measured, and drug release is sustained for at least 7 days with non-zero values (FIG. 3B).

Row | duration of detectable serum concentrations [1] | drug release sustained with non-zero concentrations in the blood [3] | duration drug was detectable in serum [1] | time after which no drug was detectable in serum [1] [days] | time to detectable serum concentrations [1] [min] | Molecule | stability in acid [2]
1 | a week |  |  |  |  | CO[C@H]1/C=C/O[C@@]2(C)Oc3c(C)c(O)c4c(O)c(c(/C=N/N5CCN(C)CC5)c(O)c4c3C2=O)NC(=O)/C(C)=C\C=C\[C@H](C)[C@H](O)[C@@H](C)[C@@H](O)[C@@H](C)[C@H](OC(C)=O)[C@@H]1C [rifampicin] | rapidly degrades in acid
2 |  | at least 7 days | at least 28 days | 3 | ≤ 15 | doxycycline hyclate | 
